Patent US11939314B2, “Quinolin-2-one derivatives” (MERCK PATENT GMBH, priority 2016, dated 2024)

Target: T1, c-Kit(V654A) (Homo sapiens, UniProt P10721, V654A)
T1 construct: amino acids 544-end containing the V654A mutation; GST (N)
Assay: c-Kit(V654A) assay
Assay type: biochemical
Details: recombinant human c-Kit aa 544-end, 200 μM ATP, 1.4E-06 means 1.4×10^−6, read-out: Inhibition (IC50) of c-KIT (V654A)
Method: c-Kit(V654A) (N-terminal GST-tagged, recombinant human c-Kit, amino acids 544-end containing the V654A mutation) is incubated with 8 mM MOPS pH 7.0, 0.2 mM EDTA, 250 μM GGMEDIYEFMGGKKK, 10 mM MgAcetate and [gamma-33P-ATP] (specific activity approx. 500 cpm/pmol, concentration 200 μM). The reaction is initiated by the addition of the MgATP mix. After incubation for 40 minutes at room temperature, the reaction is stopped by the addition of 3% phosphoric acid solution. 10 μL of the reaction is then spotted onto a P30 filtermat and washed three times for 5 minutes in 75 mM phosphoric acid and once in methanol prior to drying and scintillation counting.

T1 sequence (P10721 544-976 V654A): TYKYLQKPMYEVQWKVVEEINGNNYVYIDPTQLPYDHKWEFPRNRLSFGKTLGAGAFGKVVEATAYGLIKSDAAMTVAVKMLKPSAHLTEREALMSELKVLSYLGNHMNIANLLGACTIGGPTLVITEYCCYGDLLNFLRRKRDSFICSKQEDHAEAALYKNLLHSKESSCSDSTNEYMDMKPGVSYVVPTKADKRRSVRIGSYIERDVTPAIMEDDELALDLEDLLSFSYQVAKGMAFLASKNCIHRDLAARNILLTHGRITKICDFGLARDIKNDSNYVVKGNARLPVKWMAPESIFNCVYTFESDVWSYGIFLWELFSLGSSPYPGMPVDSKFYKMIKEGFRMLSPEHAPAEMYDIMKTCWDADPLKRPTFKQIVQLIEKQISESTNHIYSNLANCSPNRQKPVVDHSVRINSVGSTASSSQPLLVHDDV

Structure (SMILES) | IC50 [nM]
O=c1[nH]c2ncccc2cc1-c1cn(-c2ccccc2)nn1 [A6, 3-(1-phenyl-1H-[1,2,3]triazol-4-yl)-1H-[1,8]naphthyridin-2-one] | 430
O=c1[nH]c2ncccc2cc1-c1cn(-c2ccc(CO)cc2)nn1 [A7, 3-[1-(4-hydroxymethyl-phenyl)-1H-[1,2,3]triazol-4-yl]-1H-[1,8]naphthyridin-2-one] | 490
Cc1c(-c2cn(-c3ccc(C(=O)N4CCOCC4)cc3)nn2)c(=O)[nH]c2ccccc12 [A185, 4-methyl-3-{1-[4-(morpholine-4-carbonyl)-phenyl]-1H-[1,2,3]triazol-4-yl}-1H-quinolin-2-one] | 510
CS(=O)(=O)[C@@H]1CCN(C(=O)c2ccc(-n3cc(-c4cc5cc(F)ccc5[nH]c4=O)nn3)cc2)C1 [A282, 6-fluoro-3-{1-[4-((R)-3-methanesulfonyl-pyrrolidine-1-carbonyl)-phenyl]-1H-[1,2,3]triazol-4-yl}-1H-quinolin-2-one] | 16
CS(=O)(=O)[C@H]1CCN(C(=O)c2ccc(-n3cc(-c4cc5cc(F)ccc5[nH]c4=O)nn3)cc2)C1 [A283, 6-fluoro-3-{1-[4-((S)-3-methanesulfonyl-pyrrolidine-1-carbonyl)-phenyl]-1H-[1,2,3]triazol-4-yl}-1H-quinolin-2-one] | 19
CS(=O)(=O)CC1CCN(C(=O)c2ccc(-n3cc(-c4cc5cc(F)ccc5[nH]c4=O)nn3)cc2)C1 (stereo not drawn) [A284, 6-fluoro-3-{1-[4-(3-methanesulfonylmethyl-pyrrolidine-1-carbonyl)-phenyl]-1H-[1,2,3]triazol-4-yl}-1H-quinolin-2-one] | 17
Cn1cc(C2CCCN2C(=O)c2ccc(-n3cc(-c4cc5cc(F)ccc5[nH]c4=O)nn3)cc2)cn1 (stereo not drawn) [A285, 6-fluoro-3-(1-{4-[2-(1-methyl-1H-pyrazol-4-yl)-pyrrolidine-1-carbonyl]-phenyl}-1H-[1,2,3]triazol-4-yl)-1H-quinolin-2-one] | 5.6
O=C(c1ccc(-n2cc(-c3cc4cc(F)ccc4[nH]c3=O)nn2)cc1)N1CCCC1c1cccnc1 (stereo not drawn) [A286, 6-fluoro-3-{1-[4-(2-pyridin-3-yl-pyrrolidine-1-carbonyl)-phenyl]-1H-[1,2,3]triazol-4-yl}-1H-quinolin-2-one] | 5.1
CN1CCN(CC2CCCN2C(=O)c2ccc(-n3cc(-c4cc5cc(F)ccc5[nH]c4=O)nn3)cc2)CC1 (stereo not drawn) [A287, 6-fluoro-3-(1-{4-[2-(4-methyl-piperazin-1-ylmethyl)-pyrrolidine-1-carbonyl]-phenyl}-1H-[1,2,3]triazol-4-yl)-1H-quinolin-2-one] | 25
CC1CCCN1C(=O)c1ccc(-n2cc(-c3cc4cc(F)ccc4[nH]c3=O)nn2)cc1 (stereo not drawn) [A288, 6-fluoro-3-{1-[4-(2-methyl-pyrrolidine-1-carbonyl)-phenyl]-1H-[1,2,3]triazol-4-yl}-1H-quinolin-2-one] | 6.5
CN1CC2(CCN(C(=O)c3ccc(-n4cc(-c5cc6cc(F)ccc6[nH]c5=O)nn4)cc3)C2)C1 [A289, 6-fluoro-3-{1-[4-(2-methyl-2,6-diaza-spiro[3.4]octane-6-carbonyl)-phenyl]-1H-[1,2,3]triazol-4-yl}-1H-quinolin-2-one] | 25
CN1CC2(CCN(C(=O)c3ccc(-n4cc(-c5cc6cc(Cl)ccc6[nH]c5=O)nn4)cc3)C2)C1 [A290, 6-chloro-3-{1-[4-(2-methyl-2,6-diaza-spiro[3.4]octane-6-carbonyl)-phenyl]-1H-[1,2,3]triazol-4-yl}-1H-quinolin-2-one] | 14
CN1C[C@H]2CCN(C(=O)c3ccc(-n4cc(-c5cc6cc(F)ccc6[nH]c5=O)nn4)cc3)[C@H]2C1 [A291, 6-fluoro-3-{1-[4-((3aR,6aR)-5-methyl-hexahydro-pyrrolo[3,4-b]pyrrole-1-carbonyl)-phenyl]-1H-[1,2,3]triazol-4-yl}-1H-quinolin-2-one] | 7.5
CN1CCN(C(=O)c2ccc(-n3cc(-c4cc5cc(F)c(F)cc5[nH]c4=O)cn3)cc2)CC1 [A304, 6,7-difluoro-3-{1-[4-(4-methyl-piperazine-1-carbonyl)-phenyl]-1H-pyrazol-4-yl}-1H-quinolin-2-one] | 16
CN1CCN(C(=O)c2ccc(-n3cc(-c4cc5cc(Cl)ccc5[nH]c4=O)cn3)cc2)CC1 [A305, 6-chloro-3-{1-[4-(4-methyl-piperazine-1-carbonyl)-phenyl]-1H-pyrazol-4-yl}-1H-quinolin-2-one] | 7.7
CN(C)C1CN(C(=O)c2ccc(-n3cc(-c4cc5cc(F)ccc5[nH]c4=O)nn3)cc2)CC1(F)F (stereo not drawn) [A339, 3-{1-[4-(4-dimethylamino-3,3-difluoro-pyrrolidine-1-carbonyl)-phenyl]-1H-[1,2,3]triazol-4-yl}-6-fluoro-1H-quinolin-2-one] | 9.2
CO[C@H](C)C(=O)N(C)c1ccc(-n2cc(-c3cc4cc(F)ccc4[nH]c3=O)nn2)cc1 [A346, (R)—N-{4-[4-(6-fluoro-2-oxo-1,2-dihydro-quinolin-3-yl)-[1,2,3]triazol-1-yl]-phenyl}-2-methoxy-N-methyl-propionamide] | 16

Structure (SMILES) | IC50 [nM]
CO[C@@H]1CN[C@H](C(=O)N(C)c2ccc(-n3cc(-c4cc5cc(F)ccc5[nH]c4=O)nn3)cc2)C1 [A347, (2S,4S)-4-methoxy-pyrrolidine-2-carboxylic acid {4-[4-(6-fluoro-2-oxo-1,2-dihydro-quinolin-3-yl)-[1,2,3]triazol-1-yl]-phenyl}-methyl-amide] | 26
CO[C@@H](C)C(=O)N(C)c1ccc(-n2cc(-c3cc4cc(F)ccc4[nH]c3=O)nn2)cc1 [A348, (S)—N-{4-[4-(6-fluoro-2-oxo-1,2-dihydro-quinolin-3-yl)-[1,2,3]triazol-1-yl]-phenyl}-2-methoxy-N-methyl-propionamide] | 16
CN1CCC(C(=O)N(C)c2ccc(-n3cc(-c4cc5cc(F)ccc5[nH]c4=O)nn3)cc2)CC1 [A349, 1-methyl-piperidine-4-carboxylic acid {4-[4-(6-fluoro-2-oxo-1,2-dihydro-quinolin-3-yl)-[1,2,3]triazol-1-yl]-phenyl}-methyl-amide] | 51
CO[C@H]1CCN(C(=O)c2cc(-n3cc(-c4cc5cc(F)ccc5[nH]c4=O)nn3)cs2)C1 [A350, 6-fluoro-3-{1-[5-((S)-3-methoxy-pyrrolidine-1-carbonyl)-thiophen-3-yl]-1H-[1,2,3]triazol-4-yl}-1H-quinolin-2-one] | 16
CO[C@@H]1CCN(C(=O)c2cc(-n3cc(-c4cc5cc(F)ccc5[nH]c4=O)nn3)cs2)C1 [A351, 6-fluoro-3-{1-[5-((R)-3-methoxy-pyrrolidine-1-carbonyl)-thiophen-3-yl]-1H-[1,2,3]triazol-4-yl}-1H-quinolin-2-one] | 14
CO[C@@H]1CCN(S(=O)(=O)c2ccc(-n3cc(-c4cc5cc(F)ccc5[nH]c4=O)nn3)cc2)C1 [A358, 6-fluoro-3-{1-[4-((R)-3-methoxy-pyrrolidine-1-sulfonyl)-phenyl]-1H-[1,2,3]triazol-4-yl}-1H-quinolin-2-one] | 19
CO[C@@H]1CCN(S(=O)(=O)c2ccc(-n3cc(-c4cc5cc(Cl)ccc5[nH]c4=O)nn3)cc2)C1 [A359, 6-chloro-3-{1-[4-((R)-3-methoxy-pyrrolidine-1-sulfonyl)-phenyl]-1H-[1,2,3]triazol-4-yl}-1H-quinolin-2-one] | 13
CO[C@H]1CCN(S(=O)(=O)c2ccc(-n3cc(-c4cc5cc(F)ccc5[nH]c4=O)nn3)cc2)C1 [A360, 6-fluoro-3-{1-[4-((S)-3-methoxy-pyrrolidine-1-sulfonyl)-phenyl]-1H-[1,2,3]triazol-4-yl}-1H-quinolin-2-one] | 22
CO[C@H]1CCN(S(=O)(=O)c2ccc(-n3cc(-c4cc5cc(Cl)ccc5[nH]c4=O)nn3)cc2)C1 [A361, 6-chloro-3-{1-[4-((S)-3-methoxy-pyrrolidine-1-sulfonyl)-phenyl]-1H-[1,2,3]triazol-4-yl}-1H-quinolin-2-one] | 11
CO[C@@H]1CCC[C@H]1Oc1ccc(-n2cc(-c3cc4cc(F)ccc4[nH]c3=O)nn2)cc1 [A362, 6-fluoro-3-{1-[4-((1S,25)-2-methoxy-cyclopentyloxy)-phenyl]-1H-[1,2,3]triazol-4-yl}-1H-quinolin-2-one] | 16
O=c1[nH]c2ccc(F)cc2cc1-c1cn(-c2ccc(OC3CCCC3)cc2)nn1 [A364, 3-[1-(4-cyclopentyloxy-phenyl)-1H-[1,2,3]triazol-4-yl]-6-fluoro-1H-quinolin-2-one] | 21
CN1CC[C@H](Oc2ccc(-n3cc(-c4cc5cc(F)c(F)cc5[nH]c4=O)nn3)cc2)C1 [A372, 6,7-difluoro-3-{1-[4-((S)-1-methyl-pyrrolidin-3-yloxy)-phenyl]-1H-[1,2,3]triazol-4-yl}-1H-quinolin-2-one] | 21
CN1CC[C@@H](Oc2ccc(-n3cc(-c4cc5cc(F)c(F)cc5[nH]c4=O)nn3)cc2)C1 [A373, 6,7-difluoro-3-{1-[4-((R)-1-methyl-pyrrolidin-3-yloxy)-phenyl]-1H-[1,2,3]triazol-4-yl}-1H-quinolin-2-one] | 15
CN1CCC(Cc2ccc(-n3cc(-c4cc5cc(Cl)ccc5[nH]c4=O)nn3)cc2)CC1 [A374, 6-chloro-3-{1-[4-(1-methyl-piperidin-4-ylmethyl)-phenyl]-1H-[1,2,3]triazol-4-yl}-1H-quinolin-2-one] | 17
CN1CCC(Oc2ccc(-n3cc(-c4cc5cc(F)ccc5[nH]c4=O)nn3)cc2)CC1 [A375, 6-fluoro-3-{1-[4-(1-methyl-piperidin-4-yloxy)-phenyl]-1H-[1,2,3]triazol-4-yl}-1H-quinolin-2-one] | 9.5
CN1CCC(Oc2ccc(-n3cc(-c4cc5cc(Cl)ccc5[nH]c4=O)nn3)cc2)CC1 [A376, 6-chloro-3-{1-[4-(1-methyl-piperidin-4-yloxy)-phenyl]-1H-[1,2,3]triazol-4-yl}-1H-quinolin-2-one] | 4.9
